Assays:
COX-1 = target: T1, COX-1 (Homo sapiens, UniProt P23219); assay: Assay for the COX-1 inhibitory activity using U-937 (PGE2 inhibition); type: cell-based; settings: 1 μM test compound; U-937 human lymphoma cells; PGE2 after arachidonic acid; read-out: Cyclooxygenase (COX) Inhibition (%) COX-1 (1 μM)
T1 construct: host or cells: U-937 human lymphoma cells
Protocol: The collected cells were diluted with HBSS (×1, Hank's balanced salt solution) to a concentration of 1×10^6 cells/ml. 1 ml of the dilute cell solution was placed into each well of 12-well plates. 5 μl of 1 μM solution of a test compound in DMSO and 5 μl of DMSO as a control were added to the wells. The wells were incubated in CO2 incubator at 37° C. for 15 minutes. Separately, 10 mM stock solution of arachidonic acid in ethanol was diluted ten times in ethanol to prepare 1 mM solution of arachidonic acid. Arachidonic acid acts as a substrate. 10 μl of the 1 mM solution of arachidonic acid was added to each well and incubated at CO2 incubator at 37° C. for 30 minutes. The cell solution of each well was placed in a centrifuge test tube and centrifuged at 10,000 rpm at 4° C. for 5 minutes. The concentration of PGE2 in the collected cells and the supernatant was quantified by means of a monoclonal kit (Cayman Chemicals). The percentages of PGE2 inhibition in a group of the test compound-treated cells in relation to a group of the DMSO-treated cells were calculated. Based on the calculated values, the COX-1 inhibitory activities were evaluated.
(§1) The percentages of the COX inhibition were calculated according to the following equation: % Inhibition=(concentration of PGE2 in test compound-untreated sample−concentration of PGE2 in test compound-treated sample)/(concentration of PGE2 in test compound-untreated sample)×100

COX-2 = target: T2, COX-2 (Mus musculus, UniProt Q05769); assay: Assay for the COX-2 inhibitory activity using RAW 264.7 cell line (PGE2 inhibition); type: cell-based; settings: RAW264.7, 10 nM test compound, RAW 264.7 cells, interferon γ and LPS, 18 hours, read-out: Cyclooxygenase (COX) Inhibition (%) COX-2 (10 nM)
T2 construct: host or cells: RAW 264.7 cells, aspirin-pretreated, then induced with interferon gamma and LPS
T2 sequence (Q05769 18-604): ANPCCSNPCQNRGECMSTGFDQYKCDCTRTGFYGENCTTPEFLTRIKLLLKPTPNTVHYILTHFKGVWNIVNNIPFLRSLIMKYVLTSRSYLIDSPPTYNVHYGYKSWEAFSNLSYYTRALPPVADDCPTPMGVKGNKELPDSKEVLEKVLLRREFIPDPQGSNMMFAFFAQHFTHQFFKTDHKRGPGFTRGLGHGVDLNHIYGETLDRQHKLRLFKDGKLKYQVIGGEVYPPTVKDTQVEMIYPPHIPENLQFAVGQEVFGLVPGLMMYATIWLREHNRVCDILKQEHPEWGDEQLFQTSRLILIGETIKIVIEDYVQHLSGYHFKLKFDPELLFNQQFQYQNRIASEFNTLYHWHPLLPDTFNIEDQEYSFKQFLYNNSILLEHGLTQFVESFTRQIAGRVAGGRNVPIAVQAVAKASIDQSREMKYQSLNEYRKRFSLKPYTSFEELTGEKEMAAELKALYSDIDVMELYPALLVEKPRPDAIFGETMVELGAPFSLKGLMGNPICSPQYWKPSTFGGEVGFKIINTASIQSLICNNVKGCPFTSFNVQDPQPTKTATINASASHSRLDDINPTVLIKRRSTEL
Protocol: Each well was treated with 250 μM of aspirin and incubated at 37° C. for 2 hours. After the culture media were replaced with new culture media, the new culture media were treated with a test compound (10 nM) and incubated for 30 minutes. Then, each well was treated with interferon γ (100 units/ml) and lipopolysaccharide (LPS, 100 ng/ml) and incubated for 18 hours. The culture media were transferred to other test tubes. The concentration of PGE2 was quantified by means of the EIA kit (Cayman Chemicals).
as §1

T1 sequence (P23219 24-599): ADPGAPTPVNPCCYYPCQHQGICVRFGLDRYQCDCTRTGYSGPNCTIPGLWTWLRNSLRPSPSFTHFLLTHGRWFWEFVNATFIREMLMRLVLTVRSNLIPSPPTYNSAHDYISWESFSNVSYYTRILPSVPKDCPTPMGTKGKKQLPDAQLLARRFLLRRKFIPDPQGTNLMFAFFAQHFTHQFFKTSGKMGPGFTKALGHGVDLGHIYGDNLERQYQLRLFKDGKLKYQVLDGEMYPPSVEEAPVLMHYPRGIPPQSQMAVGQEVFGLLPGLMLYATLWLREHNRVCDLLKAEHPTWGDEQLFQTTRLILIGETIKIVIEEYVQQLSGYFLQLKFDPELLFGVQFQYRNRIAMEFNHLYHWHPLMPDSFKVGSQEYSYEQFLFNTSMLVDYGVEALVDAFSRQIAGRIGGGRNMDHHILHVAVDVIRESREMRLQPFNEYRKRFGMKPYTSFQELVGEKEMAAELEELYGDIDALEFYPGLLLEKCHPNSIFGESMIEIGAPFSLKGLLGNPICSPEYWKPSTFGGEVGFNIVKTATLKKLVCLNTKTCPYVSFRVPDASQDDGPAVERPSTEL

Row | SMILES | inhibition at 1 µM (COX-1) [%] | inhibition at 0.01 µM (COX-2) [%]
1 | NS(=O)(=O)c1ccc(-n2nc(OCC(F)(F)F)nc2-c2ccc(F)cc2)cc1 [Example 56, 4-[3-(2,2,2-trifluoroethoxy)-5-(4-fluorophenyl)-1,2,4-triazole-1-yl]-benzenesulfonamide] | 37.2 | 27.7
2 | COc1ccc(-c2nc(OCC(F)(F)F)nn2-c2ccc(S(N)(=O)=O)cc2)cc1 [Example 55, 4-[3-(2,2,2-trifluoroethoxy)-5-(4-methoxyphenyl)-1,2,4-triazole-1-yl]-benzenesulfonamide] | 33.1 | 16.2
3 | C#CCSc1nc(-c2ccccc2)n(-c2ccc(S(N)(=O)=O)cc2)n1 [Example 45, 4-(3-prop-2-ynylthio-5-phenyl-1,2,4-triazole-1-yl)-benzenesulfonamide] | 23.4 | 13.3
4 | N#CCOc1nc(-c2ccc(F)cc2)n(-c2ccc(S(N)(=O)=O)cc2)n1 [Example 42, 4-[3-cyanomethoxy-5-(4-fluorophenyl)-1,2,4-triazole-1-yl]-benzenesulfonamide] | 26.6 | 13.3
5 | NS(=O)(=O)c1ccc(-n2nc(S)nc2-c2ccccc2)cc1 [Example 21, 4-(3-mercapto-5-phenyl-1,2,4-triazole-1-yl)-benzenesulfonamide] | 25.7 | 12.6
6 | COc1ccc(-c2nc(OC3CCCC3)nn2-c2ccc(S(N)(=O)=O)cc2)cc1 [Example 37, 4-[3-cyclopentyloxy-5-(4-methoxyphenyl)-1,2,4-triazole-1-yl]-benzenesulfonamide] | 12 | 22.3
7 | C=CCOc1nc(-c2ccccc2)n(-c2ccc(S(N)(=O)=O)cc2)n1 [Example 53, 4-(3-allyloxy-5-phenyl-1,2,4-triazole-1-yl)-benzenesulfonamide] | 20.4 | 16.2
8 | CCOc1nc(-c2ccc(OC)cc2)n(-c2ccc(S(N)(=O)=O)cc2)n1 [Example 30, 4-[3-ethoxy-5-(4-methoxyphenyl)-1,2,4-triazole-1-yl]-benzenesulfonamide] | 16.4 | 13.2
9 | CCOc1nc(-c2ccc(F)cc2)n(-c2ccc(S(N)(=O)=O)cc2)n1 [Example 32, 4-[3-ethoxy-5-(4-fluorophenyl)-1,2,4-triazole-1-yl]-benzenesulfonamide] | 21.4 | 11.5
10 | NS(=O)(=O)c1ccc(-n2nc(O)nc2-c2ccc(Br)cc2)cc1 [Example 19, 4-[3-hydroxy-5-(4-bromophenyl)-1,2,4-triazole-1-yl]-benzenesulfonamide] | 37.4 | 12.3
11 | NS(=O)(=O)c1ccc(-n2nc(OCCCl)nc2-c2ccccc2)cc1 [Example 57, 4-[3-(2-chloroethoxy)-5-phenyl-1,2,4-triazole-1-yl]-benzenesulfonamide] | 21.4 | 26.6
12 | NS(=O)(=O)c1ccc(-n2nc(O)nc2-c2ccc(F)cc2)cc1 [Example 18, 4-[3-hydroxy-5-(4-fluorophenyl)-1,2,4-triazole-1-yl]-benzenesulfonamide] | 19.5 | 6.7
13 | CCCOc1nc(-c2ccc(OC)cc2)n(-c2ccc(S(N)(=O)=O)cc2)n1 [Example 35, 4-[3-propoxy-5-(4-methoxyphenyl)-1,2,4-triazole-1-yl]-benzenesulfonamide] | 23.4 | 16.1
14 | CCCOc1nc(-c2ccc(F)cc2)n(-c2ccc(S(N)(=O)=O)cc2)n1 [Example 36, 4-[3-propoxy-5-(4-fluorophenyl)-1,2,4-triazole-1-yl]-benzenesulfonamide] | 27 | 17.2
15 | CSc1nc(-c2ccccc2)n(-c2ccc(S(N)(=O)=O)cc2)n1 [Example 29, 4-(3-methylthio-5-phenyl-1,2,4-triazole-1-yl)-benzenesulfonamide] | 17.7 | 11.1
16 | COc1ccc(-c2nc(O)nn2-c2ccc(S(C)(=O)=O)cc2)cc1 [Example 23, 1-(4-methanesulfonylphenyl)-5-(4-methoxyphenyl)-1H-1,2,4-triazole-3-ol] | 13.2 | 35.1
17 | COc1nc(-c2ccc(OC)c(F)c2)n(-c2ccc(S(N)(=O)=O)cc2)n1 [Example 28, 4-[3-methoxy-5-(3-fluoro-4-methoxyphenyl)-1,2,4-triazole-1-yl]-benzenesulfonamide] | 21.2 | 10.5
18 | COc1nc(-c2ccc(F)cc2)n(-c2ccc(S(N)(=O)=O)cc2)n1 [Example 26, 4-[3-methoxy-5-(4-fluorophenyl)-1,2,4-triazole-1-yl]-benzenesulfonamide] | 44.5 | 13.5
19 | COc1ccc(-c2nc(OCc3ccccc3)nn2-c2ccc(S(N)(=O)=O)cc2)cc1F [Example 50, 4-[3-benzyloxy-5-(3-fluoro-4-methoxyphenyl)-1,2,4-triazole-1-yl]-benzenesulfonamide] | 28 | 16.1
20 | NS(=O)(=O)c1ccc(-n2nc(OC3CC3)nc2-c2ccccc2)cc1 [Example 58, 4-[3-cyclopropoxy-5-phenyl-1,2,4-triazole-1-yl]-benzenesulfonamide] | 34.3 | 30.4

Source: patent US7473700B2, “1,2,4-triazole derivatives, processes for the preparation thereof, and pharmaceutical compositions containing the same” (CJ Corporation, priority 2002, dated 2009)
